Test results taken from patent US11028075B2, “Therapeutic compounds and methods of use thereof” (GENENTECH, INC., priority 2018, dated 2021).
Structures can show the parent of a compound that is named as a salt.

Experiments:
[1] = target: T1, hNav1.7 (Homo sapiens (Human), UniProt Q15858); test: Tritiated compound binding to membranes from cells heterologously expressing hNav1.7 and the β1 subunit (Nav1.7 LBA); details: competitive binding vs [3H]compound, membranes with hNav1.7 and β1 subunit; read-out: Nav1.7 LBA EVO IC50
Procedure: Example 93A. Tritiated Compound Binding to Membranes Isolated from Cells that Heterologously Express hNav1.7 and the β1 Subunit
Preparation of membranes containing recombinantly expressed sodium channels: Frozen recombinant cell pellets are thawed on ice and diluted to 4 times the cell pellet weight with ice cold 50 mM Tris HCl, pH 7.4 buffer. The cell suspensions are homogenized on ice using a motorized glass dounce homogeniser. Homogenates are further diluted 8.4 times with ice cold 50 mM Tris HCl, pH 7.4 buffer and then centrifuged at 200×g at 4° C. for 15 minutes. The supernatants are collected and centrifuged at 10000×g at 4° C. for 50 min. The pellets are then re-suspended in 100 mM NaCl, 20 mM Tris HCl, pH 7.4 buffer containing 1% v/v protease inhibitors (Calbiochem) and re-homogenized on ice. The homogenized membranes are then processed through a syringe equipped with a 26 gauge needle. Protein concentrations arer determined by Bradford Assay and the membranes are stored at −80° C.
Saturation experiments. A competitive NaV1.7 inhibitor having a methyl group is tritiated. Three tritiums are incorporated in place of methyl hydrogens to generate [^3H]compound. Binding of this radioligand is performed in 5 mL borosilicate glass test tubes at room temperature. Binding is initiated by adding membranes to increasing concentrations of [^3H]compound in 100 mM NaCl, 20 mM Tris HCl, pH 7.4 buffer containing 0.01% w/v bovine serum albumin (BSA) for 18 h. Non-specific binding is determined in the presence of 1 μM unlabeled compound. After 18 h, the reactants are filtered through GF/C glass fiber filters presoaked in 0.5% w/v polyethylene imine. Filters are washed with 15 mL ice cold 100 mM NaCl, 20 mM Tris HCl, pH7.4 buffer containing 0.25% BSA to separate bound from free ligand. [^3H]compound bound to filters is quantified by liquid scintillation counting.
Binding reactions are performed in 96-well polypropylene plates at room temperature for 18 h. In 360 μL, membranes are incubated with […] [^3H]compound and increasing concentrations of Test Compound. Non-specific binding is defined in the presence of 1 μM unlabeled compound. Reactions are transferred and filtered through 96-well glass fiber/C filter plates presoaked with 0.5% polyethylene imine. The filtered reactions are washed 5 times with 200 μL ice cold buffer containing 0.25% BSA. Bound radioactivity is determined by liquid scintillation counting.
Data Analysis: For saturation experiments, non-specific binding is subtracted from total binding to provide specific binding and these values are recalculated in terms of pmol ligand bound per mg protein. Saturation curves are constructed and dissociation constants are calculated using the single site ligand binding model: Beq=(Bmax*X)/(X+Kd), where Beq is the amount of ligand bound at equilibrium, Bmax is the maximum receptor density, Kd is the dissociation constant for the ligand, and X is the free ligand concentration. For competition studies percent inhibition is determined and IC50 values are calculated using a 4 parameter logistic model (% inhibition=(A+((B−A)/(1+((x/C)^D)))) using XLfit, where A and B are the maximal and minimum inhibition respectively, C is the IC50 concentration and D is the (Hill) slope.
Example 93B. Tritiated Compound Binding to Membranes Isolated from Cells that Heterologous Express hNav1.7 and the β1 Subunit
Following the procedure described in Example 93A, and making modifications as required to: centrifuge supernatants at 100000×g instead of 10000×g; re-suspend pellets in a buffer containing 0.01% BSA in addition to 100 mM NaCl, 20 mM Tris HCl, pH 7.4 buffer, and 1% v/v proteasome inhibitors; and storing membranes at −80° C. in single use aliquots instead of pooled. […]
Target sequence in this assay (Q15858 whole entry, looked up): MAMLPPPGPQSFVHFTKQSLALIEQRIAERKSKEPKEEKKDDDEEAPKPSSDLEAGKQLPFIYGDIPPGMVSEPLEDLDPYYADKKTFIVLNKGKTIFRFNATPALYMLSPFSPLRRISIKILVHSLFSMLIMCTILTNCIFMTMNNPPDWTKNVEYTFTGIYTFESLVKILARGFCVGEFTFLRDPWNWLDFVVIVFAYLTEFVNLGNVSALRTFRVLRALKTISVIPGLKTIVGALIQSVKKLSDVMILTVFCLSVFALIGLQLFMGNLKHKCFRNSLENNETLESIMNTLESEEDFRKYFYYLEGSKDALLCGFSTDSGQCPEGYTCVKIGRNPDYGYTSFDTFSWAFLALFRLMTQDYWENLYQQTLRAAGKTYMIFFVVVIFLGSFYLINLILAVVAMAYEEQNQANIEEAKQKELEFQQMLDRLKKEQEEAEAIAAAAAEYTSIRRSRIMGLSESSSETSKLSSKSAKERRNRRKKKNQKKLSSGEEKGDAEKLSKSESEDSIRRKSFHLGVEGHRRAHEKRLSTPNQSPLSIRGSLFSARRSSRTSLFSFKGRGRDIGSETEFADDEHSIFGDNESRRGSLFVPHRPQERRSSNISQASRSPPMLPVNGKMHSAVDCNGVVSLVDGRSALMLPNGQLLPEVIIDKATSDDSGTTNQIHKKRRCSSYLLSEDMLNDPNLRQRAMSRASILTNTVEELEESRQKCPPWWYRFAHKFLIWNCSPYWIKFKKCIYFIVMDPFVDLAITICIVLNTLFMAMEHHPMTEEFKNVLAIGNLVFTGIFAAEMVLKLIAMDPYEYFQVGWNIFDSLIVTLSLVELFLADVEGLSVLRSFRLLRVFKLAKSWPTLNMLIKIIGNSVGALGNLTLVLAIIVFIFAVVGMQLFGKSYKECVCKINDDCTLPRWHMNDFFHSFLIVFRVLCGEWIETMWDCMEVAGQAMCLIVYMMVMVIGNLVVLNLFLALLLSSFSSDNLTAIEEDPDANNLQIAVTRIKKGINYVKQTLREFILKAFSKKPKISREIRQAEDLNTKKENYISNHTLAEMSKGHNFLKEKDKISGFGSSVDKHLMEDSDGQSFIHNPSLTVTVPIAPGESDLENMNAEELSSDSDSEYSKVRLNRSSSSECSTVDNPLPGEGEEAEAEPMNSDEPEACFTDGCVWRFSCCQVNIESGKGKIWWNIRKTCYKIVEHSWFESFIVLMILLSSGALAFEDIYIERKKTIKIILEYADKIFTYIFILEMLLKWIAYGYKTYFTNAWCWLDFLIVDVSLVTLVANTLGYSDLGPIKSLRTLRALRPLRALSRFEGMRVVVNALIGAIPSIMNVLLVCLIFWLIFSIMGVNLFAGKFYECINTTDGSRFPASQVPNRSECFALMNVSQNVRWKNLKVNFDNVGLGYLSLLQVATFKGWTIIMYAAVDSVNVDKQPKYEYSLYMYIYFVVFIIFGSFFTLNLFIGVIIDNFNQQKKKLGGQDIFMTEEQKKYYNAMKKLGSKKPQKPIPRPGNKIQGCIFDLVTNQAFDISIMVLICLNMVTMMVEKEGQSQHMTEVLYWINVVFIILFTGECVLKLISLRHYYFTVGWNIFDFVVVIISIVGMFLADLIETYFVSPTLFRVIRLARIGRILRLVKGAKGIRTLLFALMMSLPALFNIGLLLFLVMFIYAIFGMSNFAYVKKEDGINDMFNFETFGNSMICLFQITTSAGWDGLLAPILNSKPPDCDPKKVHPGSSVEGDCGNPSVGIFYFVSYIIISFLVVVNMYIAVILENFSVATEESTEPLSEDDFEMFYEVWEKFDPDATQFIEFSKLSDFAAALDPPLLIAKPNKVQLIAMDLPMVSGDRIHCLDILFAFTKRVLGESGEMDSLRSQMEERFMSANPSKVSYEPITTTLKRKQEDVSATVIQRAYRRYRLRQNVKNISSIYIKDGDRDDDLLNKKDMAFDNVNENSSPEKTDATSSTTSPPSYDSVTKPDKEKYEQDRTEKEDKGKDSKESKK
Target sequence in this assay (Q07699 whole entry partner, looked up): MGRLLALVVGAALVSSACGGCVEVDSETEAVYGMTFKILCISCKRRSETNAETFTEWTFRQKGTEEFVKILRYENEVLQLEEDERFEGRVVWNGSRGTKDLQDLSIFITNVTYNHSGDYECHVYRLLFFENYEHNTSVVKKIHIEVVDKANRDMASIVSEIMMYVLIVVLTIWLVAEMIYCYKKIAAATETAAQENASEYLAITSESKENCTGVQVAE

[2] = target: T1, hNav1.7; test: Electrophysiological assay (EP), voltage clamp on Syncropatch 384PE, CHO cells stably expressing Nav1.7; type: cell-based; details: holding potential −50 mV, 7.5 min compound incubation, read-out: EP_SP hNav1.7 EVO IC50
Excerpt: Example 93C. Electrophysiological Assay (EP) (In Vitro Assay)
Patch voltage clamp electrophysiology allows for the direct measurement and quantification of block of voltage-gated sodium channels (NaV's), and allows the determination of the time- and voltage-dependence of block which has been interpreted as differential binding to the resting, open, and inactivated states of the sodium channel (Hille, B., Journal of General Physiology (1977), 69: 497-515).
The following voltage clamp electrophysiology studies are performed on representative compounds using cells heterologously expressing Nav1.7 or Nav1.5 channels. cDNAsfor Nav1.7 (NM_002977) and Nav1.5 (AC137587) are stably expressed in Chinese Hamstr Ovary (CHO) cells and CHL (Chinese Hamster Lung) cells respectively. Sodium currents are measured in the whole-cell configuration using Syncropatch 384PE (Nanlon Technologies, Germany). 1NPC®-384 chips with custom medium resistance and single hole mode are used. Internal solution consists of (in mM): […], 10 […], 20 EGTA, and 10 Hepes (pH adjusted to 7.2); and external solution contains (in mM): 60 NMDG, 80 NaCl, 4 KCl, 1 MgCl2, 2 CaCl2, 2 D-Glucose monohydrate, 10 Hepes (pH adjusted to 7.4 with NaOH).
After system flushing, testing compounds are dissolved in external solution containing 0.1% Pluronic F-127. The chip is moved into the measuring head and the instrument primes the chip with external and internal solutions. 10 μl cells are added to the chip from a cell hotel, and a negative pressure of −50 mBar is applied to form a seal. Following treatment with seal enhancer solution and wash-off with external solution, negative pressure of −250 mbar is applied for 1 second to achieve the whole-cell configuration, followed by three washing steps in external solution. 20 μl of compounds is added to 40 μl in each well (1:3 dilution of compounds), and after mixing, 20 μl is removed so the volume is retained at 40 μl. After approximately 13 minutes recordings, 20 μl/well of 2 uM TTX, or 333 uM Tetracaine (for Nav1.5) is added to achieve full block.
For voltage protocol, an holding potential of −50 mV is applied during the whole experiment. A depolarizing step is applied to −10 mV for 10 ms, followed by a hyperpolarization step to −150 mV for 20 ms to allow channel recovery from inactivation. A second depolarizing step is applied from −150 mV to −10 mV for 10 ms, where currents are measured to derive blocking effects of compounds. Inhibition is determined based on 7.5 min of compound incubation.
Target sequence in this assay (Q15858 other isoform, or with tags, fused parts or gaps): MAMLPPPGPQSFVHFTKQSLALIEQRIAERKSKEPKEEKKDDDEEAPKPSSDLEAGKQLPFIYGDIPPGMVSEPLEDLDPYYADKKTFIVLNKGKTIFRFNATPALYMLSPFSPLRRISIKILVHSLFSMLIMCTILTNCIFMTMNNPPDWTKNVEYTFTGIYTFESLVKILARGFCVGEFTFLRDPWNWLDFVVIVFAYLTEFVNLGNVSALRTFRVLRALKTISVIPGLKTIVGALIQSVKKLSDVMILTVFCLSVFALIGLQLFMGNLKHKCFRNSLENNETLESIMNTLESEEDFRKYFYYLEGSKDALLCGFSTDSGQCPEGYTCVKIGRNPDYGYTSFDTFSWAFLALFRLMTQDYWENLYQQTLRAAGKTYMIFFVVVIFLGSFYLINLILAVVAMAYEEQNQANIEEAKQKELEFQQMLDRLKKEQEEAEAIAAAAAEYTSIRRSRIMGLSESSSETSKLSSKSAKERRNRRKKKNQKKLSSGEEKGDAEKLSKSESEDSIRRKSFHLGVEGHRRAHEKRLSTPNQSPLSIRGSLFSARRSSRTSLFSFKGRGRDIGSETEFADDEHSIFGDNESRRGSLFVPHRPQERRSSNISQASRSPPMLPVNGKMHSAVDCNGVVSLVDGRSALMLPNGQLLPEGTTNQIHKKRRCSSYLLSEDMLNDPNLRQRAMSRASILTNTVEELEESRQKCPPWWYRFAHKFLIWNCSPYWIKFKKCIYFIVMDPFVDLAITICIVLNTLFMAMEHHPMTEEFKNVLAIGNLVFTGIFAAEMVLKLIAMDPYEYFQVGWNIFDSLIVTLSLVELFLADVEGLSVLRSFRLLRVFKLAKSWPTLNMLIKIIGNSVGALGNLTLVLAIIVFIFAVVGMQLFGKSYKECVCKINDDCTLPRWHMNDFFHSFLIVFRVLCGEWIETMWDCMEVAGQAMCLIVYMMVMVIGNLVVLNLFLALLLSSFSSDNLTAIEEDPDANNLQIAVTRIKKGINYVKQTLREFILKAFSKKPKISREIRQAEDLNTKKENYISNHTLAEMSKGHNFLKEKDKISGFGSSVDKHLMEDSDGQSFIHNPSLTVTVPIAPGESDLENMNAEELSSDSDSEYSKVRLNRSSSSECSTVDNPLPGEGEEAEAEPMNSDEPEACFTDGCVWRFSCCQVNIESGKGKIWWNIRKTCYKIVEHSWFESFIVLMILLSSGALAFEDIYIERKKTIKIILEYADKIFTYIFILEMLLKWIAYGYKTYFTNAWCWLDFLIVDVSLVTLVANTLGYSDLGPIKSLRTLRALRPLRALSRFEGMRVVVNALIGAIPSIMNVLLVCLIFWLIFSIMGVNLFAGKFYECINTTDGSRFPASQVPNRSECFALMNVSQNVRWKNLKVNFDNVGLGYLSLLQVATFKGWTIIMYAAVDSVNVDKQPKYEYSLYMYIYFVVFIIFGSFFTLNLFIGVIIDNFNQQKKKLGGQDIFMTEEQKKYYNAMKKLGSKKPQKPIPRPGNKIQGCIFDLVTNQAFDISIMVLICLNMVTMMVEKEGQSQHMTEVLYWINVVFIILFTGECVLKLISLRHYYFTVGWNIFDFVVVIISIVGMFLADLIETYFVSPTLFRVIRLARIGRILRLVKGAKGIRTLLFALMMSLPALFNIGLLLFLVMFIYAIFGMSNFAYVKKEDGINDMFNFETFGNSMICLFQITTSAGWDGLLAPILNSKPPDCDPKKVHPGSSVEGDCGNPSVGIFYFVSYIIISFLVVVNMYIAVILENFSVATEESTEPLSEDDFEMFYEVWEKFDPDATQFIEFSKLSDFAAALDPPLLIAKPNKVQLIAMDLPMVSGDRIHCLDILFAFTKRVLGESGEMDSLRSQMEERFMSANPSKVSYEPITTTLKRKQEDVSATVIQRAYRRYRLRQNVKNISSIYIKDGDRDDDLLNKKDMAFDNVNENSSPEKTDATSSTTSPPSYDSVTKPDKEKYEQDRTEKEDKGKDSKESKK

Row | IC50 [1] | IC50 [2] | Compound
1 | 45.8 nM | 9.11 nM | CN(C)[C@H]1C[C@@H](c2cccc(C3COC3)c2)CC[C@@H]1Nc1cc(F)c(S(=O)(=O)Nc2ccncn2)cc1Cl [Example 44, 5-chloro-4-(((1S,2S,4S)-2-(dimethylamino)-4-(3-(oxetan-3-yl)phenyl)cyclohexyl)amino)-2-fluoro-N-(pyrimidin-4-yl)benzenesulfonamide]
2 | 82.3 nM | 3.34 nM | CN(C)[C@H]1CN(S(=O)(=O)c2cccc(C(F)(F)F)c2)CC[C@@H]1Nc1cc(F)c(S(=O)(=O)Nc2ccncn2)cc1Cl [Example 73, 5-Chloro-4-(((3S,4S)-3-(dimethylamino)-1-((3-(trifluoromethyl)phenyl)sulfonyl)piperidin-4-yl)amino)-2-fluoro-N-(pyrimidin-4-yl)benzenesulfonamide formate]
3 | 22.7 nM | 2.73 nM | O=S(=O)(Nc1ccncn1)c1cc(F)c(O[C@H]2CC[C@H](c3cccc(C(F)(F)F)c3)C[C@@H]2N2CCCC2)cc1F [Example 58, 2,5-difluoro-N-(pyrimidin-4-yl)-4-(((1S,2S,4S)-2-(pyrrolidin-1-yl)-4-(3-(trifluoromethyl)-phenyl)cyclohexyl)oxy)benzenesulfonamide]
4 | 1.2 nM | 0.923 nM | CN(C)[C@H]1C[C@@H](c2cccc(C(F)(F)F)c2F)CC[C@@H]1Nc1cc(F)c(S(=O)(=O)Nc2ccncn2)cc1Cl [Example 16, 5-chloro-4-(((1S,2S,4S)-2-(dimethylamino)-4-(2-fluoro-3-(trifluoromethyl)phenyl)-cyclohexyl)-amino)-2-fluoro-N-(pyrimidin-4-yl)benzenesulfonamide]
5 | 4.01 nM | 1.85 nM | CN(C)[C@H]1C[C@@H](c2cc(C(F)(F)F)ccc2F)CC[C@@H]1Oc1cc(F)c(S(=O)(=O)Nc2ccncn2)cc1Cl [Example 74, 5-chloro-4-(((1S,2S,4S)-2-(dimethylamino)-4-(2-fluoro-5-(trifluoromethyl)phenyl)cyclohexyl)oxy)-2-fluoro-N-(pyrimidin-4-yl)benzenesulfonamide]
6 | 3.95 nM | 1.92 nM | CN(C)[C@H]1C[C@@](O)(c2cccc(C(F)(F)F)c2)CC[C@@H]1Nc1cc(F)c(S(=O)(=O)Nc2ccncn2)cc1Cl [Example 35, 5-chloro-4-(((1S,2S,4R)-2-(dimethylamino)-4-hydroxy-4-(3-(trifluoromethyl)phenyl)-cyclohexyl)amino)-2-fluoro-N-(pyrimidin-4-yl)benzenesulfonamide formate]
7 | 8.03 nM | 0.905 nM | CN(C1CCC1)[C@H]1C[C@@H](c2cccc(C(F)(F)F)c2)CC[C@@H]1Nc1cc(F)c(S(=O)(=O)Nc2ccncn2)cc1F [Example 40, 4-(((1S,2S,4S)-2-(cyclobutyl(methyl)amino)-4-(3-(trifluoromethyl)phenyl)cyclohexyl)amino)-2,5-difluoro-N-(pyrimidin-4-yl)benzenesulfonamide formate]
8 | 5.41 nM | 1.03 nM | CN(C)[C@H]1C[C@@H](c2cc(Cl)ccc2Cl)CC[C@@H]1Oc1cc(F)c(S(=O)(=O)Nc2ccncn2)cc1Cl [Example 65, 5-chloro-4-(((1S,2S,4S)-4-(2,5-dichlorophenyl)-2-(dimethylamino)cyclohexyl)oxy)-2-fluoro-N-(pyrimidin-4-yl)benzenesulfonamide formate]
9 | 3.28 nM | 0.819 nM | CN(C)[C@H]1C[C@@H](c2cc(C(F)(F)F)ccc2Cl)CC[C@@H]1Oc1cc(F)c(S(=O)(=O)Nc2ccncn2)cc1Cl [Example 86, 5-chloro-4-(((1S,2S,4S)-4-(2-chloro-5-(trifluoromethyl)phenyl)-2-(dimethylamino)-cyclohexyl)oxy)-2-fluoro-N-(pyrimidin-4-yl)benzenesulfonamide]
10 | 0.67 nM | 0.263 nM | CN(C)[C@H]1C[C@@H](c2cccc(C3(C(F)(F)F)CC3)c2)CC[C@@H]1Nc1cc(F)c(S(=O)(=O)Nc2ccncn2)cc1Cl [Example 18, 5-chloro-4-(((1S,2S,4S)-2-(dimethylamino)-4-(3-(1-(trifluoromethyl)cyclopropyl)phenyl)-cyclohexyl)amino)-2-fluoro-N-(pyrimidin-4-yl)benzenesulfonamide]
11 | 643 nM | 211 nM | CN(C)[C@H]1C[C@@H](c2ccccc2C(F)(F)F)CC[C@@H]1Nc1cc(F)c(S(=O)(=O)Nc2ccncn2)cc1Cl (single isomer, unassigned) [Example 77]
12 | 1.69 nM | 0.737 nM | CCN[C@H]1C[C@@H](c2cccc(C(F)(F)F)c2)CC[C@@H]1Oc1cc(F)c(S(=O)(=O)Nc2ccncn2)cc1Cl [Example 68, 5-chloro-4-(((1S,2S,4S)-2-(ethylamino)-4-(3-(trifluoromethyl)phenyl)cyclohexyl)oxy)-2-fluoro-N-(pyrimidin-4-yl)benzenesulfonamide formate]
13 | – | 0.57 nM | O=S(=O)(Nc1ccncn1)c1cc(Cl)c(O[C@H]2CC[C@H](c3cccc(C(F)(F)F)c3)C[C@@H]2N2CCC(O)C2)cc1F (stereo partly shown) [Example 90, formate]
14 | 12.4 nM | – | CN(C)[C@H]1C[C@@H](c2cccc(C(F)(F)F)c2)CC[C@@H]1Nc1ccc(S(=O)(=O)Nc2ccncn2)cc1F [Example 89, 4-(((1S,2S,4S)-2-(Dimethylamino)-4-(3-(trifluoromethyl)phenyl)cyclohexyl)amino)-3-fluoro-N-(pyrimidin-4-yl)benzenesulfonamide formate]

Row | Compound | IC50 [1] | IC50 [2]
15 | 5-Chloro-4-(((3 S,4S,6S)-7,7-dichloro-4-(dimethylamino)-6-(3-(trifluoromethyl)phenyl)-bicyclo[4.1.0]heptan-3-yl)amino)-2-fluoro-N-(pyrimidin-4-yl)benzenesulfonamide [Example 52] | 2000 nM | 496 nM
